Measurements reported in patent US20050169978A1, “Wet-micro grinding” (priority 2004, published 2005).

Assay: AmB content by high performance liquid chromatography during grinding
Format: physicochemical
Details: ball mill, 210 min overall grinding, HPLC
Protocol: Samples were taken at a grinding time of 90 minutes, 150 minutes, and 210 minutes, and were designated as LDAB90, LDAB150, and LDAB210, respectively. All samples were stored at 2-8° C. before analyzed. The particle size ranges of the samples were measured using N4 Plus Particle Size Analyzer and the AmB content was measured using high performance liquid chromatography.

SMILES: C[C@@H]1[C@H](O)[C@@H](C)/C=C/C=C/C=C/C=C/C=C/C=C/C=C/[C@H](O[C@@H]2O[C@H](C)[C@@H](O)[C@H](N)[C@@H]2O)C[C@@H]2O[C@](O)(C[C@@H](O)C[C@@H](O)[C@H](O)CC[C@@H](O)C[C@@H](O)CC(=O)O[C@H]1C)C[C@H](O)[C@H]2C(=O)O [AmB, amphotericin B]
- stability of AmB (AmB content) during grinding: remained stable during the whole period of the grinding process
